Assay results: the NIST ThermoML archive (doi:10.1016/j.jct.2008.06.009)
Numbers after ± are expanded uncertainties.

Test: xn = mol fraction of the nth substance listed
Details: Liquid, Bellows volumetry

N [ammonia] + O
mass density [kg/m3]
Details	x1 = 0.1048	x1 = 0.2046	x1 = 0.3807	x1 = 0.5565	x1 = 0.7008	x1 = 0.801	x1 = 0.9102	x1 = 1
450 K, 200000 kPa	–	–	–	755.2 ± 3.6	699.3 ± 3.4	660.9 ± 3.2	618.7 ± 3	588.2 ± 2.8
500 K, 10000 kPa	782.5 ± 3.8	728.2 ± 3.5	–	–	–	–	–	–
500 K, 20000 kPa	792.5 ± 3.8	740.4 ± 3.6	641.7 ± 3.1	517 ± 2.5	–	–	–	–
500 K, 30000 kPa	801.3 ± 3.9	751.1 ± 3.6	658.5 ± 3.2	551.1 ± 2.7	447.5 ± 2.2	–	–	–
500 K, 40000 kPa	809.6 ± 3.9	760.6 ± 3.7	672.4 ± 3.3	574 ± 2.8	487.8 ± 2.4	422 ± 2.1	–	–
500 K, 50000 kPa	817.3 ± 3.9	769.5 ± 3.7	684.3 ± 3.3	591.7 ± 2.9	514.1 ± 2.5	456.2 ± 2.2	–	350.9 ± 1.7
500 K, 60000 kPa	824.3 ± 4	777.5 ± 3.8	695.3 ± 3.4	606.4 ± 2.9	534.1 ± 2.6	480.7 ± 2.3	426.9 ± 2.1	384.9 ± 1.8
500 K, 70000 kPa	831.3 ± 4	785.1 ± 3.8	704.8 ± 3.4	619 ± 3	550.6 ± 2.7	499.8 ± 2.4	450 ± 2.2	410.1 ± 2
500 K, 80000 kPa	837.7 ± 4	792.1 ± 3.8	713.9 ± 3.4	630.1 ± 3	564.5 ± 2.7	515.8 ± 2.5	468.5 ± 2.3	430.2 ± 2.1
500 K, 90000 kPa	843.7 ± 4.1	798.6 ± 3.9	721.8 ± 3.5	640.2 ± 3.1	576.7 ± 2.8	529.6 ± 2.6	484.1 ± 2.3	446.9 ± 2.1
500 K, 100000 kPa	849.7 ± 4.1	805 ± 3.9	729.7 ± 3.5	649.4 ± 3.1	587.6 ± 2.8	541.6 ± 2.6	497.6 ± 2.4	461.5 ± 2.2
500 K, 120000 kPa	860.7 ± 4.1	816.7 ± 3.9	743.7 ± 3.6	665.7 ± 3.2	606.7 ± 2.9	562.5 ± 2.7	520.1 ± 2.5	485.8 ± 2.3
500 K, 140000 kPa	870.8 ± 4.2	827.5 ± 4	756.6 ± 3.6	679.9 ± 3.3	623.1 ± 3	580.1 ± 2.8	538.9 ± 2.6	505.9 ± 2.4
500 K, 160000 kPa	880.6 ± 4.2	837.4 ± 4	768.3 ± 3.7	692.9 ± 3.3	637.4 ± 3.1	595.3 ± 2.9	555 ± 2.7	523.1 ± 2.5
500 K, 180000 kPa	889.4 ± 4.3	846.7 ± 4.1	779.3 ± 3.8	704.5 ± 3.4	650.4 ± 3.1	608.9 ± 2.9	569.2 ± 2.7	538.3 ± 2.6
500 K, 200000 kPa	897.9 ± 4.3	855.4 ± 4.1	789.2 ± 3.8	715 ± 3.4	662.1 ± 3.2	621.2 ± 3	581.9 ± 2.8	551.9 ± 2.6
